Assay results published in paper PMC9098913, “In vitro reconstitution of Escherichia coli divisome activation” (Nature Communications, 2022).

Test: Diffusion coefficient (Dcoeff) of FtsA from FRAP
Conditions: for Diffusion Coefficient, mean: Fig. 3j; for Dcoeff: Fig. S3i/S3j
From the text: We could also use the data from these bleaching experiments to quantify the membrane-binding kinetics and diffusion of membrane-bound proteins by analysing the change of the fluorescence profile during recovery.
Equimolar concentrations of Cy3- and Cy5-labelled FtsA, supplemented with 20% unlabelled FtsA were used to study FRET and FRAP. Five pre-bleach frames were acquired, followed by acceptor photobleaching of a rectangular ROI with 40% 641 nm laser power and a dwell size of 1 µs/pixel, 75% overlapping lines. The recovery of the signal or the increase in donor intensity were measured with either two frames or one frame per second.
Bleaching the acceptor dye leads to an increase in the donor intensity, which can be used to quantify the Foerster Resonance energy transfer (FRET)[48]. FRET efficiency was quantified with E%=Ipost/Ipost+Ipre⋅100 , where Ipost is the intensity of the […] and Ipre is the […]. […] To extract the contribution of both processes, we adjusted a routine recently published by Gerganova et al.[33]. In short, the code provides the contribution of both modes of recovery by analysing the shape of the fluorescence recovery profile. […] Contribution of diffusion leads to a change of the slope of the outer borders of the bleached region (S4h right). Thus, by measuring the change of the slope of the border recovery, diffusion and simple on/off binding can be distinguished. We developed “FRAPdiff”, a graphical user interface, which uses the original fit routine by David Rutkowski. It can be used directly on.tiff movies with annotated bleach regions as ImageJ ROIs. In addition, we added optional bleach correction, user selectable projection axis (x or y), and optional mirroring of the recovery profiles, if bleaching was not symmetric. The original fit routine for estimating the recovery and diffusion dynamics can be found at https://github.com/davidmrutkowski/1DReflectingDiffusion. FRAPdiff is available at 10.5281/zenodo.6400639[49] under the GPLv3 open-source license.

Substance: FtsA WT: wild-type E. coli actin-homologue FtsA, membrane anchor of FtsZ
- Diffusion Coefficient (0.2µM, + FtsZ, replicate Exp.4): 4.01E-02
- Diffusion Coefficient (0.2µM, + FtsZ, replicate Exp.5): 7.03E-05
- Diffusion Coefficient (0.2µM, + FtsZ, replicate Exp.6): 2.65E-03
- Diffusion Coefficient (0.2µM, + FtsZ, replicate Exp.7): 9.70E-04
- Diffusion Coefficient, mean (0.4 µM FtsA + N): 1.74E-03 µm2/s
- Diffusion Coefficient, mean (0.4 µM FtsA + Z&N): 1.31E-03 µm2/s
- Diffusion Coefficient, mean (0.4 µM FtsA + Z): 9.28E-04 µm2/s
- Diffusion Coefficient (0.4µM FtsA alone, Mean, n=18 (WT), 9 (R286W)): 0.0094
- Diffusion Coefficient, mean (0.4 µM FtsA alone): 9.38E-03 µm2/s
- Diffusion Coefficient (0.4µM FtsA alone, replicate Exp.1): 1.66E-03
- Diffusion Coefficient (0.4µM FtsA alone, replicate Exp.10): 2.61E-04
- Diffusion Coefficient (0.4µM FtsA alone, replicate Exp.11): 2.61E-03
- Diffusion Coefficient (0.4µM FtsA alone, replicate Exp.12): 1.80E-02
- Diffusion Coefficient (0.4µM FtsA alone, replicate Exp.13): 3.92E-03
- Diffusion Coefficient (0.4µM FtsA alone, replicate Exp.14): 4.91E-02
- Diffusion Coefficient (0.4µM FtsA alone, replicate Exp.15): 1.40E-02
- Diffusion Coefficient (0.4µM FtsA alone, replicate Exp.16): 4.71E-05
- Diffusion Coefficient (0.4µM FtsA alone, replicate Exp.17): 6.43E-03
- Diffusion Coefficient (0.4µM FtsA alone, replicate Exp.18): 3.05E-04
- Diffusion Coefficient (0.4µM FtsA alone, replicate Exp.2): 7.21E-03
- Diffusion Coefficient (0.4µM FtsA alone, replicate Exp.3): 3.35E-02
- Diffusion Coefficient (0.4µM FtsA alone, replicate Exp.4): 6.07E-07
- Diffusion Coefficient (0.4µM FtsA alone, replicate Exp.5): 4.86E-04
- Diffusion Coefficient (0.4µM FtsA alone, replicate Exp.6): 1.29E-02
- Diffusion Coefficient (0.4µM FtsA alone, replicate Exp.7): 1.54E-02
- Diffusion Coefficient (0.4µM FtsA alone, replicate Exp.8): 3.15E-04
- Diffusion Coefficient (0.4µM FtsA alone, replicate Exp.9): 2.76E-03
- Diffusion Coefficient (0.4 µM FtsA, FRAP, p-value […] 10^−6): 0.01 ± 0.01 µm^2/s
- Diffusion Coefficient (0.4µM, + FtsN&Z, Mean, n=6 (WT), 9 (R286W)): 0.0013
- Diffusion Coefficient (0.4µM, + FtsN&Z, replicate Exp.1): 7.97E-04
- Diffusion Coefficient (0.4µM, + FtsN&Z, replicate Exp.2): 2.09E-03
- Diffusion Coefficient (0.4µM, + FtsN&Z, replicate Exp.3): 9.40E-04
- Diffusion Coefficient (0.4µM, + FtsN&Z, replicate Exp.4): 3.16E-04
- Diffusion Coefficient (0.4µM, + FtsN&Z, replicate Exp.5): 3.44E-03
- Diffusion Coefficient (0.4µM, + FtsN&Z, replicate Exp.6): 3.02E-04
- Diffusion Coefficient (0.4µM, + FtsN, Mean, n=5 (WT), 6 (R286W)): 0.0017
- Diffusion Coefficient (0.4µM, + FtsN, replicate Exp.1): 1.54E-03
- Diffusion Coefficient (0.4µM, + FtsN, replicate Exp.2): 2.97E-03
- Diffusion Coefficient (0.4µM, + FtsN, replicate Exp.3): 2.28E-03
- Diffusion Coefficient (0.4µM, + FtsN, replicate Exp.4): 1.80E-03
- Diffusion Coefficient (0.4µM, + FtsN, replicate Exp.5): 1.27E-04
- Diffusion Coefficient (0.4µM, + FtsZ, Mean, n=5 (WT), 8 (R286W)): 0.0009
- Diffusion Coefficient (0.4µM, + FtsZ, replicate Exp.1): 1.81E-03
- Diffusion Coefficient (0.4µM, + FtsZ, replicate Exp.2): 9.21E-04
- Diffusion Coefficient (0.4µM, + FtsZ, replicate Exp.3): 2.54E-06
- Diffusion Coefficient (0.4µM, + FtsZ, replicate Exp.4): 1.48E-07
- Diffusion Coefficient (0.4µM, + FtsZ, replicate Exp.5): 1.91E-03
- Diffusion Coefficient, mean (0.8 µM FtsA + N): 2.78E-04 µm2/s
- Diffusion Coefficient, mean (0.8 µM FtsA + Z&N): 1.55E-03 µm2/s
- Diffusion Coefficient, mean (0.8 µM FtsA + Z): 1.98E-04 µm2/s
- Diffusion Coefficient (0.8µM FtsA alone, Mean, n=19 (WT), 8 (R286W)): 0.0008
- Diffusion Coefficient, mean (0.8 µM FtsA alone): 8.23E-04 µm2/s
- Diffusion Coefficient (0.8µM FtsA alone, replicate Exp.1): 7.29E-03
- Diffusion Coefficient (0.8µM FtsA alone, replicate Exp.10): 4.22E-07
- Diffusion Coefficient (0.8µM FtsA alone, replicate Exp.11): 6.76E-05
- Diffusion Coefficient (0.8µM FtsA alone, replicate Exp.12): 1.41E-04
- Diffusion Coefficient (0.8µM FtsA alone, replicate Exp.13): 9.30E-04
- Diffusion Coefficient (0.8µM FtsA alone, replicate Exp.14): 4.15E-06
- Diffusion Coefficient (0.8µM FtsA alone, replicate Exp.15): 1.75E-03
- Diffusion Coefficient (0.8µM FtsA alone, replicate Exp.16): 1.00E-03
- Diffusion Coefficient (0.8µM FtsA alone, replicate Exp.17): 1.78E-04
- Diffusion Coefficient (0.8µM FtsA alone, replicate Exp.18): 3.36E-03
- Diffusion Coefficient (0.8µM FtsA alone, replicate Exp.19): 2.24E-04
- Diffusion Coefficient (0.8µM FtsA alone, replicate Exp.2): 2.12E-04
- Diffusion Coefficient (0.8µM FtsA alone, replicate Exp.3): 6.52E-08
- Diffusion Coefficient (0.8µM FtsA alone, replicate Exp.4): 1.44E-04
- Diffusion Coefficient (0.8µM FtsA alone, replicate Exp.5): 5.47E-08
- Diffusion Coefficient (0.8µM FtsA alone, replicate Exp.6): 4.93E-07
- Diffusion Coefficient (0.8µM FtsA alone, replicate Exp.7): 2.75E-04
- Diffusion Coefficient (0.8µM FtsA alone, replicate Exp.8): 6.96E-06
- Diffusion Coefficient (0.8µM FtsA alone, replicate Exp.9): 4.32E-05
- Diffusion Coefficient (0.8µM, + FtsN&Z, Mean, n=5 (WT), 4 (R286W)): 0.0015
- Diffusion Coefficient (0.8µM, + FtsN&Z, replicate Exp.1): 2.13E-03
- Diffusion Coefficient (0.8µM, + FtsN&Z, replicate Exp.2): 1.07E-06
- Diffusion Coefficient (0.8µM, + FtsN&Z, replicate Exp.3): 6.03E-04
- Diffusion Coefficient (0.8µM, + FtsN&Z, replicate Exp.4): 3.04E-03
- Diffusion Coefficient (0.8µM, + FtsN&Z, replicate Exp.5): 1.98E-03
- Diffusion Coefficient (0.8µM, + FtsN, Mean, n=4 (WT), 3 (R286W)): 0.000278
- Diffusion Coefficient (0.8µM, + FtsN, replicate Exp.1): 2.14E-05
- Diffusion Coefficient (0.8µM, + FtsN, replicate Exp.2): 6.16E-05
- Diffusion Coefficient (0.8µM, + FtsN, replicate Exp.3): 1.34E-04
- Diffusion Coefficient (0.8µM, + FtsN, replicate Exp.4): 8.93E-04
- Diffusion Coefficient (0.8µM, + FtsZ, Mean, n=3 (WT), 8 (R286W)): 0.0002
- Diffusion Coefficient (0.8µM, + FtsZ, replicate Exp.1): 7.26E-07
- Diffusion Coefficient (0.8µM, + FtsZ, replicate Exp.2): 4.83E-04
- Diffusion Coefficient (0.8µM, + FtsZ, replicate Exp.3): 1.10E-04
- Dcoeff (0.10 µM FtsA, replicate 1): 5.58E-02 µm2/s
- Dcoeff (0.10 µM FtsA, replicate 2): 3.42E-03 µm2/s
- Dcoeff (0.10 µM FtsA, replicate 3): 1.87E-02 µm2/s
- Dcoeff (0.10 µM FtsA, replicate 4): 5.22E-02 µm2/s
- Dcoeff (0.10 µM FtsA, summary value): 2.68E-02 µm2/s
- Dcoeff (0.20 µM FtsA, summary value): 1.77E-02 µm2/s
- Dcoeff (0.40 µM FtsA, summary value): 9.38E-03 µm2/s
- Dcoeff (0.80 µM FtsA, summary value): 8.23E-04 µm2/s
